From US20240208961A1, “EIF4E INHIBITORS AND USES THEREOF” (PIC Therapeutics, Inc., priority 2022, published 2024)
Values belong to the molecule of their own block, whether it stands above or below them.

Key:
ZR-75-1 [1] = assay: Cell viability assay, adherent cell line, 5 day Alamar Blue (Example 8): ZR-75-1; type: cell-based; details: ZR-75-1, Breast Cancer Cell Viability
Experimental: (§1) Cell viability assays were performed on certain compounds of the disclosure, according to the following procedure.
(§2) Cell line specific media conditions used:
(§3) The procedure for adherent cell line compound screening was as follows:
(§4) • Cells were seeded in 96-well cell culture treated tissue culture plates: ZR-75-1, NIHOVCAR3, T47D, and LOVO cells 4000 cells/well; and HPAFII 3000 cell/well
(§5) Day 3: Compound Dilution and Dosing
(§6) • 5-fold serial dilution (8 point) of each compound in DMSO 0-25 mM in compound storage plates was prepared (stored at −80° C. if not to be used immediately). • Cells were rinsed with 1% FBS Media (appropriate to cell line as described above) and replaced with 87.5 μL media prior to dosing. HPAFII was screened in normal 10% FBS Media. • DMSO compound dilution series was diluted in 1% FBS media (appropriate to cell line as described above)—2 μL in 248 μL to give an 8× final concentration. • Cells were dosed 12.5 μL/well in triplicate to give final dose curved on cells 0-25 μM. • Media blank 100 μL/well×8 was set up. • All plates were incubated at 37° C.
(§7) Day 8: 5 Day Viability Assay
(§8) • Alamar Blue viability reagent was added (10 μL per well) and incubated for 3 hours at 37° C. prior to fluorescence detection (Ex560 nm/Em590 nm) on a Varioskan Lux multimode plate reader.
(§9) Results from cell viability assays are summarized in Table 23, wherein A represents IC50≤1 μM; B represents 1 μM<IC50≤8 μM; and C represents IC50>8 μM. Blank cells indicate that the compound was not tested in a particular assay.

ZR-75-1 [2] = assay: ZR-75-1 compound screening cell viability, Alamar Blue (Example 6); type: cell-based; details: ZR-75-1 cells, Media 1% FBS, read-out: ZR-75-1 Cell Viability, 4 Days: IC50
Human eIF4E (aa 28-217) = biological target: T1, Human eIF4E (aa 28-217) (Homo sapiens, UniProt P06730); assay: 4G-eIF4E protein-based assay (TR-FRET, biotin labeled 4G2 peptide); type: binding
T1 construct: Human eIF4E (aa 28-217) with a C-terminal His-tag; made in house
T1 sequence (P06730 28-217): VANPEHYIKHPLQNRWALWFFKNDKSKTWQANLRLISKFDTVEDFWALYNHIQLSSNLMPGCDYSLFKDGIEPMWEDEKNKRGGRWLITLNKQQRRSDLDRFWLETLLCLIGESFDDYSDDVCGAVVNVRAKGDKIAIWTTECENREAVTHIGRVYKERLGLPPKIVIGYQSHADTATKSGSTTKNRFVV
Experimental: Human eIF4E ([…]) with a C-terminal His-tag was expressed in E. coli in inclusion bodies. The protein was solubilized with 8 M urea and purified under denaturing conditions using nickel-charged HisTrap HP columns (GE Healthcare). The purified protein was then refolded by diluting in 20 mM Hepes pH 7.0, 0.5 M NaCl, 1 mM DTT, […], 0.5 M arginine plus 6 M urea, and then dialyzing overnight into the same buffer without the urea. The protein was further dialyzed into 20 mM Hepes, pH 6.5, 50 mM NaCl, 1 mM EDTA, 1 mM DTT, and concentrated using Hitrap SP sepharose FF columns (GE Healthcare). The concentrated protein was dialyzed into 20 mM Hepes, pH 7.0, 0.5M NaCl, 5 mM DTT and […], and stored at -80° C. until use. Test compounds (3.43 mM stock in DMSO) were diluted 2-fold in series in DMSO (10 concentration points). Compound solutions (1.2 μL/well) were added into black 384-well polypropylene microplates (Matrix, Thermal Scientific). […] The samples were incubated at room temperature (20-23° C.) for 4 hours. Biotin labeled 4G2 peptide ([…])-NH2, 1.75 μM stock in DMSO) was diluted to 0.13 μM in Assay Buffer (without DTT) and 5 μL/well was added. The samples were incubated at room temperature for 20 min. Five microliters per well of 15 nM Eu-streptavidin (Eu-SA, Perkin Elmer) and 96 nM Allophycocyanin (APC)-anti His antibody (Columbia Biosciences) in Assay Buffer (without DTT) were then added and the samples were incubated at room temperature for 20 min. Assay signals were monitored by reading excitation at 340 nm and emission fluorescence at 615 nm and 665 nm on an Envision reader (Perkin Elmer). Normalized TR-FRET (time-resolved fluorescence resonance energy transfer) assay signal (Rn) was calculated by the formula: […] C=(Ac-Ba)/(Dc-Bd) • Where Ac is the fluorescence intensity of 1.5 nM Eu-SA in the assay buffer at 665 nm. IC50 values were calculated using xLFit program (IDBS).

NIHOVCAR3 = assay: Cell viability assay, adherent cell line, 5 day Alamar Blue (Example 8): NIHOVCAR3; type: cell-based; details: Homo sapiens, OVCAR-3, 120 h, OVCAR3, Ovarian Cancer Cell
Experimental: as §1, §2, §3, §4, §5, §6, §7, §8, §9

MM.1R = assay: Cell viability assay, suspension cell line, 5 day Alamar Blue (Example 8): MM.1R; type: cell-based; details: 120 h, Multiple Myeloma (Steroid Resistant) Cancer Cell
Experimental: as §1, §2
(§10) The procedure for suspension cell line compound screening was as follows:
(§11) Day 1: Cell Seeding and Compound Dosing
as §6, with “• Cells were seeded 2×10^5 in 96-well cell culture treated tissue culture plates: 87.5 μL/well; MM.1 S, MM,1R, NCIH510A. • 5-fold” for “• 5-fold”, “to dosing. • DMSO” for “to dosing. HPAFII was screened in normal 10% FBS Media. • DMSO”
(§12) Day 6: 5 Day Viability Assay
as §8, §9

LoVo = assay: Cell viability assay, adherent cell line, 5 day Alamar Blue (Example 8): LoVo; type: cell-based; details: Homo sapiens, 120 h, Colorectal Cancer Cell Viability
Experimental: as §1, §2, §3, §4, §5, §6, §7, §8, §9

MM.1S = assay: Cell viability assay, suspension cell line, 5 day Alamar Blue (Example 8): MM.1S; type: cell-based; details: Homo sapiens, MM1.S, 120 h, Multiple Myeloma (Steroid Sensitive) Cancer Cell
Experimental: as §1, §2, §10, §11
as §6, with “• Cells were seeded 2×10^5 in 96-well cell culture treated tissue culture plates: 87.5 μL/well; MM.1 S, MM,1R, NCIH510A. • 5-fold” for “• 5-fold”, “to dosing. • DMSO” for “to dosing. HPAFII was screened in normal 10% FBS Media. • DMSO”
as §12, §8, §9

HPAFII = assay: Cell viability assay, adherent cell line, 5 day Alamar Blue (Example 8): HPAFII; type: cell-based; details: Homo sapiens, HPAF-II, 120 h, Pancreatic Cancer Cell
Experimental: as §1, §2, §3, §4, §5, §6, §7, §8, §9

NCIH510A = assay: Cell viability assay, suspension cell line, 5 day Alamar Blue (Example 8): NCIH510A; type: cell-based; details: Homo sapiens, NCI-H510A, 120 h, Small Cell Lung Cancer Cell Line
Experimental: as §1, §2, §10, §11
as §6, with “• Cells were seeded 2×10^5 in 96-well cell culture treated tissue culture plates: 87.5 μL/well; MM.1 S, MM,1R, NCIH510A. • 5-fold” for “• 5-fold”, “to dosing. • DMSO” for “to dosing. HPAFII was screened in normal 10% FBS Media. • DMSO”
as §12, §8, §9

T47D = assay: Cell viability assay, adherent cell line, 5 day Alamar Blue (Example 8): T47D; type: cell-based; details: Homo sapiens, 120 h, Breast Cancer Cell Viability
Experimental: as §1, §2, §3, §4, §5, §6, §7, §8, §9

MM.1S cells = assay: 5 day viability assay in MM.1S cells, I-11 and dexamethasone (Example 7); type: cell-based; details: Homo sapiens, MM1.S, 120 h; MM.1S cells (steroid sensitive), 5 days, Alamar Blue; read-out: IC50 (μM), Viability Assessment (5 Days) in MM.1S Cells
Experimental: (§13) Compound I-11 was studied in the context of dexamethasone combinations, which is used clinically in early Multiple Myeloma prior to the emergence of steroid resistance and is a common backbone therapy. The MM.1S cell line is a steroid sensitive line, and the MM.1R line is the corresponding cell line which has been driven to steroid resistance. The procedure for these studies was as follows:
as §11
(§14) • Cells were seeded 2×10^5 in 96-well cell culture treated tissue culture plates: 87.5 μL/well; MM.1 S and MM.1R • A 5-fold serial dilution of each compound in DMSO (0-25 mM) was prepared in compound storage plates (stored at −80° C. if not to be used immediately). An 8-point curve was used for compound I-11, and a 6-point curve was used for dexamethasone (0-25 mM). • Cells were rinsed with 1% FBS Media and replaced with 87.5 μL media prior to dosing. • DMSO compound dilution series was diluted in 1% FBS media—2 μL compound in 123 μL media to give a 16× final concentration. Dosing across the plate columns 1-12 (compound I-11 0-400 μM), 6.25 μL 16× in media/well. Dosing down plate rows (columns 1-6 dexamethasone 0-400 μM), 6.25 μL 16× compound in media per well. • Cells were dosed with 12.5 μL for both compounds, with 2 replicates of dosing matrix per 96-well plate. Final volume cells and compound was 100 μL/well. • Media blank 100 μL/well×8 was set up. • All plates were incubated at 37° C.
as §12, §8

MM.1R cells = assay: 5 day viability assay in MM.1R cells, I-11 and dexamethasone (Example 7); type: cell-based; details: 120 h; MM.1R cells (steroid resistant), 5 days, Alamar Blue; read-out: IC50 (μM), Viability Assessment (5 Days) in MM.1R Cells
Experimental: as §13, §11, §14, §12, §8

Molecule: CC(C)c1sc(Nc2ncc(-c3cccs3)cc2C(=O)O)nc1C(C)(C)C [Compound I-25]
IC50 (ZR-75-1 [1]; Homo sapiens, 120 h): 1000 to 8000 nM

Molecule: 2-((4-(cyclopent-1-en-1-yl)-5-isobutylthiazol-2-yl)amino)-5-(thiophen-2-yl)nicotinic acid [Compound I-7]
IC50 (ZR-75-1 [2]): < 1000 nM | IC50 (ZR-75-1 [1]): > 8000 nM

Molecule: O=C(O)c1cc(-c2cccs2)cnc1Nc1nccs1 [Compound I-15]
IC50 (ZR-75-1 [2]; Homo sapiens, 96 h): > 8000 nM | IC50 (ZR-75-1 [1]; Homo sapiens, 120 h): > 8000 nM

Molecule: O=C(O)c1cc(-c2cccs2)cnc1Nc1nc(C(F)(F)F)cs1 [Compound I-12]
IC50 (ZR-75-1 [2]; Homo sapiens, 96 h): 1000 to 8000 nM | IC50 (ZR-75-1 [1]; Homo sapiens, 120 h): 1000 to 8000 nM

IC50 (Human eIF4E (aa 28-217)): 500 to 1000 nM | IC50 (MM.1R): 1000 to 8000 nM | IC50 (LoVo): 1000 to 8000 nM | IC50 (MM.1S): 1000 to 8000 nM | IC50 (T47D): 1000 to 8000 nM
Molecule: C=C(C)c1nc(Nc2ncc(-c3cccs3)cc2C(=O)O)sc1CC(C)C [Compound I-13]
IC50 (ZR-75-1 [2]; Homo sapiens, 96 h): 1000 to 8000 nM | IC50 (NIHOVCAR3): 1000 to 8000 nM | IC50 (ZR-75-1 [1]; Homo sapiens, 120 h): 1000 to 8000 nM | IC50 (HPAFII): 1000 to 8000 nM | IC50 (NCIH510A): 1000 to 8000 nM

IC50 (Human eIF4E (aa 28-217)): 500 to 1000 nM | IC50 (MM.1R): ≤ 1000 nM | IC50 (LoVo): ≤ 1000 nM | IC50 (MM.1S): ≤ 1000 nM | IC50 (T47D): ≤ 1000 nM
Molecule: CC(C)Cc1sc(Nc2ncc(-c3cccs3)cc2C(=O)O)nc1C1CCC1 [Compound I-28]
IC50 (NIHOVCAR3): ≤ 1000 nM | IC50 (ZR-75-1 [1]; Homo sapiens, 120 h): ≤ 1000 nM | IC50 (HPAFII): ≤ 1000 nM | IC50 (NCIH510A): ≤ 1000 nM

Molecule: CC(C)Cc1sc(Nc2ncc(-c3cccs3)cc2C(=O)O)nc1C1CCCC1 [Compound I-6, 2-((4-cyclopentyl-5-isobutylthiazol-2-yl)amino)-5-(thiophen-2-yl)nicotinic acid]
IC50 (ZR-75-1 [2]; Homo sapiens, 96 h): < 1000 nM | IC50 (ZR-75-1 [1]; Homo sapiens, 120 h): ≤ 1000 nM

IC50 (MM.1S cells): 0.0133 µM | IC50 (MM.1R cells): 30.9 µM
Molecule: C[C@@H]1C[C@H]2[C@@H]3CCC4=CC(=O)C=C[C@]4(C)[C@@]3(F)[C@@H](O)C[C@]2(C)[C@@]1(O)C(=O)CO [dexamethasone, reference compound]

Molecule: Cc1nc(Nc2ncc(-c3cccs3)cc2C(=O)O)sc1C [Compound I-14]
IC50 (ZR-75-1 [2]; Homo sapiens, 96 h): 1000 to 8000 nM | IC50 (ZR-75-1 [1]; Homo sapiens, 120 h): 1000 to 8000 nM

Molecule: CC(C)Cc1sc(Nc2ncc(-c3cccs3)cc2C(=O)O)nc1C(C)C [Compound I-26]
IC50 (ZR-75-1 [1]; Homo sapiens, 120 h): ≤ 1000 nM
